The results in this text go back to patent US20260315452A1, “PROTEASE INHIBITORS AND USES THEREOF” (priority 2023, published 2026).

Where two headings read alike, the source gives them in different places.

In one assay the target is SARS-CoV-2 3CLpro (Severe acute respiratory syndrome coronavirus 2, UniProt P0DTD1). Kind of assay: biochemical. The settings on record: inhibition of SARS-CoV-2 3CLpro; 15 nM 3CLpro, 25 μM fluorogenic substrate, 37° C.; read-out: Inhibitory Activity (IC50).
The next assay deals with SARS-CoV-2. In words: Anti-SARS-CoV-2 activity in A549 cells expressing the human ACE2 receptor (inhibition of SARS-CoV-2 replication). The format is cell-based. The following applies: for EC50: read-out: Antiviral Activity (EC50).
Setting [1] is: Severe acute respiratory syndrome coronavirus 2, A549-ACE2, 24 h.

The IC50 is the concentration at which inhibition is half-maximal. The EC50 is the concentration at which the effect is half-maximal. Consider `CC(NC(=O)c1cc(Br)cc([N+](=O)[O-])c1N[C@@H]1CCCC[C@@H]1NC(=O)c1cncc2ccccc12)C(F)(F)F` (stereo partly drawn) [Compound 60, N-((1S, 2R)-2-((4-bromo-2-nitro-6-((1,1,1-trifluoropropan-2-yl)carbamoyl)phenyl)amino)cyclohexyl)isoquinoline-4-carboxamide], for which the IC50 on SARS-CoV-2 3CLpro was 100 to 1000 nM. Further, the EC50 in the assay on SARS-CoV-2 (setting [1]) lay within 100 to 1000 nM.

Take `O=C(N[C@@H]1CCNC1)c1cc(Br)cc([N+](=O)[O-])c1N[C@H]1CN(C(=O)c2cncc3ccccc23)CCC1(F)F` [Compound 46, 5-bromo-2-(((S)-4,4-difluoro-1-(isoquinoline-4-carbonyl)piperidin-3-yl)amino)-3-nitro-N-((R)-pyrrolidin-3-yl) benzamide]: the IC50 on SARS-CoV-2 3CLpro is below 100 nM. The half-maximal effective concentration (EC50) with SARS-CoV-2 (setting [1]) is below 100 nM.

As to `O=C(NC1CC(F)(F)C1)c1cc(Br)cc([N+](=O)[O-])c1N1CCC2(CN(C(=O)c3cncc4ccccc34)CC2(F)F)C1` (centres unmarked) [Compound 27, 5-bromo-2-(9,9-difluoro-7-(isoquinoline-4-carbonyl)-2,7-diazaspiro[4. 4]nonan-2-yl)-N-(3,3-difluorocyclobutyl)-3-nitrobenzamide], the IC50 at SARS-CoV-2 3CLpro is below 100 nM. In addition, the EC50 in the assay on SARS-CoV-2 (setting [1]) lay in the range of 100 to 1000 nM.

In the case of `CNC(=O)c1cc(Br)cc([N+](=O)[O-])c1N1CC(F)(F)C2(CCN(C(=O)c3cncc4ccccc34)C2)C1` (centres unmarked) [Compound 67, 5-bromo-2-(4,4-difluoro-7-(isoquinoline-4-carbonyl)-2,7-diazaspiro[4.4]nonan-2-yl)-N-methyl-3-nitrobenzamide], at SARS-CoV-2 3CLpro, the half-inhibitory concentration (IC50) was in the range of 100 to 1000 nM. For the same compound, the EC50 with SARS-CoV-2 (setting [1]) is 100 to 1000 nM.

`CNC(=O)c1cc(Br)cc([N+](=O)[O-])c1NC1CCC2(C1)CN(C(=O)c1cncc3ccccc13)C2` (centres unmarked) [Compound 127, 5-bromo-2-((2-(isoquinoline-4-carbonyl)-2-azaspiro[3, 4]octan-6-yl)amino)-N-methyl-3-nitrobenzamide]: the IC50 at SARS-CoV-2 3CLpro fell in the range of 1000 to 10000 nM. Besides, the EC50 with SARS-CoV-2 (setting [1]) was above 10000 nM.

With `O=C(c1cc(Br)cc([N+](=O)[O-])c1N[C@H]1CN(C(=O)c2cncc3ccccc23)CCC1(F)F)N1CC(O)C1` [Compound 139, (S)-(5-bromo-2-((4,4-difluoro-1-(isoquinoline-4-carbonyl)piperidin-3-yl)amino)-3-nitrophenyl)(3-hydroxyazetidin-1-yl)methanone], the IC50 at SARS-CoV-2 3CLpro is below 100 nM. In addition, the EC50 in the assay on SARS-CoV-2 (setting [1]) is below 100 nM.

As to `CNC(=O)c1cc(Br)cc(C(F)(F)F)c1N[C@H]1CN(C(=O)c2cncc3ccccc23)CCC1(F)F` [Compound 35, (S)-5-bromo-2-((4,4-difluoro-1-(isoquinoline-4-carbonyl)piperidin-3-yl)amino)-N-methyl-3-(trifluoromethyl)benzamide], on SARS-CoV-2 3CLpro, the IC50 is below 100 nM. Moreover, in the assay with SARS-CoV-2 (setting [1]), the EC50 was below 100 nM.

Regarding `O=C(NC1CC(F)(F)C1)c1cc(Br)cc(C(F)(F)F)c1N[C@@H]1COCC[C@@H]1NC(=O)c1cncc2cc(F)ccc12` [Compound 80, N-((3S, 4S)-3-((4-bromo-2-((3,3-difluorocyclobutyl)carbamoyl)-6-(trifluoromethyl)phenyl)amino)tetrahydro-2H-pyran-4-yl)-7-fluoroisoquinoline-4-carboxamide], on SARS-CoV-2 3CLpro, the IC50 fell in the range of 100 to 1000 nM. Also, the half-maximal effective concentration (EC50) in the assay with SARS-CoV-2 (setting [1]) fell in the range of 100 to 1000 nM.

Take `O=C(NC1CC1)c1cc(Br)cc([N+](=O)[O-])c1N[C@H]1CN(C(=O)c2cncc3ccccc23)CCC1(F)F` [Compound 147, (S)-5-bromo-N-cyclopropyl-2-((4,4-difluoro-1-(isoquinoline-4-carbonyl)piperidin-3-yl)amino)-3-nitrobenzamide]: the concentration for half-maximal inhibition (IC50) on SARS-CoV-2 3CLpro is below 100 nM. Besides, the EC50 in the assay with SARS-CoV-2 (setting [1]) is below 100 nM.

With `CNC(=O)c1cc(Br)cc([N+](=O)[O-])c1NC(C(C)C)C1CN(C(=O)c2cncc3ccccc23)C1` (stereo in doubt) [Compound 12, (S)-5-bromo-2-((1-(1-(isoquinoline-4-carbonyl)azetidin-3-yl)-2-methylpropyl)amino)-N-methyl-3-nitrobenzamide], at SARS-CoV-2 3CLpro, the 50% inhibitory concentration (IC50) is below 100 nM. In addition, in the assay with SARS-CoV-2 (setting [1]), the EC50 is below 100 nM.

Consider `NC(=O)c1cc(Br)cc([N+](=O)[O-])c1N[C@@H]1CCCC[C@@H]1NC(=O)c1cncc2ccccc12` [Compound 53, N-((1S,2R)-2-((4-bromo-2-carbamoyl-6-nitrophenyl)amino)cyclohexyl)isoquinoline-4-carboxamide], for which the IC50 at SARS-CoV-2 3CLpro was in the range of 100 to 1000 nM. In addition, in the assay with SARS-CoV-2 (setting [1]), the EC50 lay in the range of 1000 to 10000 nM.

In the case of `O=C(NC1CC(F)(F)C1)c1cc(Cl)cc([N+](=O)[O-])c1N[C@@H]1COCC[C@@H]1NC(=O)c1cncc2ccccc12` [Compound 29, N-((3S, 4S)-3-((4-chloro-2-((3,3-difluorocyclobutyl)carbamoyl)-6-nitrophenyl)amino)tetrahydro-2H-pyran-4-yl)isoquinoline-4-carboxamide], the IC50 at SARS-CoV-2 3CLpro was below 100 nM. Moreover, the “antiviral potency in A549 cells in comparison with compound Ref-2” value in the assay on SARS-CoV-2 (A549 cells, versus Ref-2 (FIG. 7)) is recorded as “better antiviral potency”. Moreover, the EC50 in the assay with SARS-CoV-2 (setting [1]) was below 100 nM.

Consider `O=C(NC1CC1)c1cc(Cl)cc(C(F)(F)F)c1N[C@H]1CN(C(=O)c2cncc3ccccc23)CCC1(F)F` [Compound 83, (S)-5-chloro-N-cyclopropyl-2-((4,4-difluoro-1-(isoquinoline-4-carbonyl)piperidin-3-yl)amino)-3-(trifluoromethyl)benzamide], for which the IC50 on SARS-CoV-2 3CLpro was below 100 nM. Also, in the assay with SARS-CoV-2 (setting [1]), the EC50 is below 100 nM.

For the compound `Cn1cc(NC(=O)c2cc(Br)cc([N+](=O)[O-])c2N[C@H]2CN(C(=O)c3cncc4ccccc34)CCC2(F)F)cn1` [Compound 155, (S)-5-bromo-2-((4,4-difluoro-1-(isoquinoline-4-carbonyl)piperidin-3-yl)amino)-N-(1-methyl-1H-pyrazol-4-yl)-3-nitrobenzamide], on SARS-CoV-2 3CLpro, the IC50 was below 100 nM. For the same compound, in the assay on SARS-CoV-2 (setting [1]), the EC50 was below 100 nM.

For the compound `CNC(=O)c1cc(Br)cc([N+](=O)[O-])c1N[C@@H]1CCOC[C@@H]1NC(=O)c1cncc2ccccc12` [Compound 70, N-((3R, 4R)-4-((4-bromo-2-(methylcarbamoyl)-6-nitrophenyl)amino)tetrahydro-2H-pyran-3-yl)isoquinoline-4-carboxamide], on SARS-CoV-2 3CLpro, the concentration for half-maximal inhibition (IC50) is 100 to 1000 nM. Further, the EC50 in the assay with SARS-CoV-2 (setting [1]) was in the range of 100 to 1000 nM.

On to `O=C(c1cc(Cl)cc([N+](=O)[O-])c1N[C@H]1CN(C(=O)c2cncc3ccccc23)CCC1(F)F)N1CC(F)(F)C1` [Compound 143, (S)-(5-chloro-2-((4,4-difluoro-1-(isoquinoline-4-carbonyl)piperidin-3-yl)amino)-3-nitrophenyl)(3,3-difluoroazetidin-1-yl)methanone], for which the IC50 on SARS-CoV-2 3CLpro is below 100 nM. Further, the EC50 with SARS-CoV-2 (setting [1]) was below 100 nM.

Regarding `O=C(NC1CC(F)(F)C1)c1cc(Br)cc([N+](=O)[O-])c1N1CCC2(CCN(C(=O)c3cncc4ccccc34)C2)C1` (centres unmarked) [Compound 26, 5-bromo-N-(3,3-difluorocyclobutyl)-2-(7-(isoquinoline-4-carbonyl)-2,7-diazaspiro[4.4]nonan-2-yl)-3-nitrobenzamide], the IC50 at SARS-CoV-2 3CLpro is below 100 nM. Besides, the EC50 in the assay with SARS-CoV-2 (setting [1]) lay in the range of 100 to 1000 nM.

`CNC(=O)c1cc(Br)cc([N+](=O)[O-])c1N[C@@H]1COCC[C@@H]1NC(=O)c1cncc2ccccc12` [Compound 132, N-((3S, 4S)-3-((4-bromo-2-(methylcarbamoyl)-6-nitrophenyl)amino)tetrahydro-2H-pyran-4-yl)isoquinoline-4-carboxamide]: the IC50 on SARS-CoV-2 3CLpro is below 100 nM. Besides, in the assay with SARS-CoV-2 (setting [1]), the EC50 was below 100 nM.

For the compound `CNC(=O)c1cc(Br)cc([N+](=O)[O-])c1N1CCC2(CN(C(=O)c3cncc4ccccc34)CC2(F)F)C1` (centres unmarked) [Compound 129, 5-bromo-2-(9,9-difluoro-7-(isoquinoline-4-carbonyl)-2,7-diazaspiro[4, 4]nonan-2-yl)-N-methyl-3-nitrobenzamide], the IC50 at SARS-CoV-2 3CLpro lay in the range of 100 to 1000 nM. For the same compound, in the assay on SARS-CoV-2 (setting [1]), the EC50 lay within 100 to 1000 nM.

On to `CN(C)C1CN(C(=O)c2cc(Br)cc([N+](=O)[O-])c2N[C@H]2CN(C(=O)c3cncc4ccccc34)CCC2(F)F)C1` [Compound 47], for which the IC50 on SARS-CoV-2 3CLpro was below 100 nM. Moreover, the EC50 in the assay on SARS-CoV-2 (setting [1]) was below 100 nM.

`O=C(NC1CCOC1)c1cc(Cl)cc([N+](=O)[O-])c1N[C@H]1CN(C(=O)c2cncc3ccccc23)CCC1(F)F` (stereo in doubt) [Compound 159, 5-chloro-2-(((S)-4,4-difluoro-1-(isoquinoline-4-carbonyl)piperidin-3-yl)amino)-3-nitro-N-((S)-tetrahydrofuran-3-yl)benzamide]: in the assay with SARS-CoV-2 (inhibition of SARS-CoV-2 replication in mammalian cells, A549-ACE2 cells, 24 hours infection), the EC50 is below 100 nM.

As for `CNC(=O)c1cc(Br)cc(C(F)(F)F)c1N[C@H]1CN(C(=O)c2cncc3cccnc23)CCC1(F)F` [Compound 167, (S)-5-bromo-2-((4,4-difluoro-1-(1,6-naphthyridine-8-carbonyl)piperidin-3-yl)amino)-N-methyl-3-(trifluoromethyl)benzamide], the IC50 on SARS-CoV-2 3CLpro is below 100 nM.

For `COC1CN(C(=O)c2cc(Cl)cc([N+](=O)[O-])c2N[C@H]2CN(C(=O)c3cncc4cccnc34)CCC2(F)F)C1` [Compound 111, (S)-(5-chloro-2-((4,4-difluoro-1-(1,6-naphthyridine-8-carbonyl)piperidin-3-yl)amino)-3-nitrophenyl)(3-methoxyazetidin-1-yl)methanone], the IC50 at SARS-CoV-2 3CLpro was below 100 nM.

As for `CNC(=O)c1cc(Br)cc([N+](=O)[O-])c1N[C@@H]1CCCC[C@@H]1NC(=O)c1cncc(OC)c1` [Compound 4, N-((1S, 2R)-2-((4-bromo-2-(methylcarbamoyl)-6-nitrophenyl)amino)cyclohexyl)-5-methoxynicotinamide], the IC50 at SARS-CoV-2 3CLpro was 1000 to 10000 nM.

Take `CNC(=O)c1cc(Br)cc([N+](=O)[O-])c1NC(C1CC1)C1CN(C(=O)c2cncc3ccccc23)C1` (centres unmarked) [Compound 58, 5-bromo-2-((cyclopropyl(1-(isoquinoline-4-carbonyl)azetidin-3-yl)methyl)amino)-N-methyl-3-nitrobenzamide]: on SARS-CoV-2 3CLpro, the IC50 is 100 to 1000 nM.

For the compound `CNC(=O)c1cc(Br)cc([N+](=O)[O-])c1NC(C(C)C)C1CN(C(=O)c2cncc(C(F)(F)F)c2)C1` (centres unmarked) [Compound 73, 5-bromo-N-methyl-2-((2-methyl-1-(1-(5-(trifluoromethyl)nicotinoyl)azetidin-3-yl)propyl)amino)-3-nitrobenzamide], the IC50 on SARS-CoV-2 3CLpro fell in the range of 1000 to 10000 nM.
